Data from PubChem BioAssay (NCI).
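Dose response: 5 concentrations. Exposure: 48 h. Format: 96-well plates. Endpoint: linear interpolation; highest concentration if not reached. GI50 marks 50% less growth. TGI is the concentration that stops growth completely.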

Columns and labels:
Experiment in all cases: DTP human tumour cell line panel, 48 h
ACHN renal = tested on: ACHN renal
MALME-3M melanoma = tested on: MALME-3M melanoma
M14 melanoma = tested on: M14 melanoma
SN12C renal = tested on: SN12C renal
TK-10 renal = tested on: TK-10 renal
SW-620 colon = tested on: SW-620 colon
OVCAR-8 ovarian = tested on: OVCAR-8 ovarian
LOX IMVI melanoma = tested on: LOX IMVI melanoma
NCI/ADR-RES ovarian = tested on: NCI/ADR-RES ovarian
RXF 393 renal = tested on: RXF 393 renal
OVCAR-4 ovarian = tested on: OVCAR-4 ovarian
COLO 205 colon = tested on: COLO 205 colon
CAKI-1 renal = tested on: CAKI-1 renal
MDA-MB-435 = tested on: MDA-MB-435
OVCAR-5 ovarian = tested on: OVCAR-5 ovarian
HL-60(TB) leukemia = tested on: HL-60(TB) leukemia
DU-145 prostate = tested on: DU-145 prostate
786-0 renal = tested on: 786-0 renal
HOP-62 NSCLC = tested on: HOP-62 NSCLC
CCRF-CEM leukemia = tested on: CCRF-CEM leukemia
HCC-2998 colon = tested on: HCC-2998 colon
U251 CNS = tested on: U251 CNS
SK-OV-3 ovarian = tested on: SK-OV-3 ovarian
RPMI-8226 leukemia = tested on: RPMI-8226 leukemia
NCI-H460 lung = tested on: NCI-H460 lung
HT29 colon = tested on: HT29 colon
HCT-116 colon = tested on: HCT-116 colon
PC-3 prostate = tested on: PC-3 prostate
NCI-H522 lung = tested on: NCI-H522 lung
NCI-H23 lung = tested on: NCI-H23 lung
OVCAR-3 ovarian = tested on: OVCAR-3 ovarian
HOP-92 NSCLC = tested on: HOP-92 NSCLC
HS 578T breast = tested on: HS 578T breast
SK-MEL-2 melanoma = tested on: SK-MEL-2 melanoma
T-47D breast = tested on: T-47D breast
SK-MEL-28 melanoma = tested on: SK-MEL-28 melanoma
BT-549 breast = tested on: BT-549 breast
K-562 leukemia = tested on: K-562 leukemia
MDA-MB-231 breast = tested on: MDA-MB-231 breast
SF-268 CNS = tested on: SF-268 CNS
KM12 colon = tested on: KM12 colon
NCI-H226 lung = tested on: NCI-H226 lung
UACC-62 melanoma = tested on: UACC-62 melanoma
A549 NSCLC = tested on: A549 NSCLC
SF-295 CNS = tested on: SF-295 CNS
MCF7 breast = tested on: MCF7 breast
UACC-257 melanoma = tested on: UACC-257 melanoma
SR leukemia = tested on: SR leukemia
A498 renal = tested on: A498 renal
UO-31 renal = tested on: UO-31 renal
HCT-15 colon = tested on: HCT-15 colon
IGROV1 ovarian = tested on: IGROV1 ovarian
SNB-75 CNS = tested on: SNB-75 CNS
SNB-19 CNS = tested on: SNB-19 CNS
SK-MEL-5 melanoma = tested on: SK-MEL-5 melanoma
SF-539 CNS = tested on: SF-539 CNS
MOLT-4 leukemia = tested on: MOLT-4 leukemia
EKVX NSCLC = tested on: EKVX NSCLC

COc1ccc(OC)c(C2=C(c3cn(C)c4ccccc34)C(=O)NC2=O)c1
GI50 (ACHN renal): > 25 µM
TGI (ACHN renal): > 25 µM
GI50 (MALME-3M melanoma): > 25 µM
TGI (MALME-3M melanoma): > 25 µM
GI50 (M14 melanoma): > 25 µM
TGI (M14 melanoma): > 25 µM
GI50 (SN12C renal): > 25 µM
TGI (SN12C renal): > 25 µM
GI50 (TK-10 renal): > 25 µM
TGI (TK-10 renal): > 25 µM
GI50 (SW-620 colon): 20.8 µM
TGI (SW-620 colon): > 25 µM
GI50 (OVCAR-8 ovarian): > 25 µM
TGI (OVCAR-8 ovarian): > 25 µM
GI50 (LOX IMVI melanoma): > 25 µM
TGI (LOX IMVI melanoma): > 25 µM
GI50 (NCI/ADR-RES ovarian): > 25 µM
TGI (NCI/ADR-RES ovarian): > 25 µM
GI50 (RXF 393 renal): > 25 µM
TGI (RXF 393 renal): > 25 µM
GI50 (OVCAR-4 ovarian): > 25 µM
TGI (OVCAR-4 ovarian): > 25 µM
GI50 (COLO 205 colon): > 25 µM
TGI (COLO 205 colon): > 25 µM
GI50 (CAKI-1 renal): > 25 µM
TGI (CAKI-1 renal): > 25 µM
GI50 (MDA-MB-435): 8.6 µM
TGI (MDA-MB-435): > 25 µM
GI50 (OVCAR-5 ovarian): > 25 µM
TGI (OVCAR-5 ovarian): > 25 µM
GI50 (HL-60(TB) leukemia): > 18.8 µM
TGI (HL-60(TB) leukemia): > 25 µM
GI50 (DU-145 prostate): > 25 µM
TGI (DU-145 prostate): > 25 µM
GI50 (786-0 renal): > 25 µM
TGI (786-0 renal): > 25 µM
GI50 (HOP-62 NSCLC): > 25 µM
TGI (HOP-62 NSCLC): > 25 µM
GI50 (CCRF-CEM leukemia): > 25 µM
TGI (CCRF-CEM leukemia): > 25 µM
GI50 (HCC-2998 colon): > 25 µM
TGI (HCC-2998 colon): > 25 µM
GI50 (U251 CNS): > 25 µM
TGI (U251 CNS): > 25 µM
GI50 (SK-OV-3 ovarian): > 25 µM
TGI (SK-OV-3 ovarian): > 25 µM
GI50 (RPMI-8226 leukemia): > 25 µM
TGI (RPMI-8226 leukemia): > 25 µM
GI50 (NCI-H460 lung): > 25 µM
TGI (NCI-H460 lung): > 25 µM
GI50 (HT29 colon): > 21.5 µM
TGI (HT29 colon): > 25 µM
GI50 (HCT-116 colon): > 25 µM
TGI (HCT-116 colon): > 25 µM
GI50 (PC-3 prostate): > 25 µM
TGI (PC-3 prostate): > 25 µM
GI50 (NCI-H522 lung): > 25 µM
TGI (NCI-H522 lung): > 25 µM
GI50 (NCI-H23 lung): > 25 µM
TGI (NCI-H23 lung): > 25 µM
GI50 (OVCAR-3 ovarian): > 25 µM
TGI (OVCAR-3 ovarian): > 25 µM
GI50 (HOP-92 NSCLC): > 25 µM
TGI (HOP-92 NSCLC): > 25 µM
GI50 (HS 578T breast): > 16.9 µM
TGI (HS 578T breast): > 25 µM
GI50 (SK-MEL-2 melanoma): > 25 µM
TGI (SK-MEL-2 melanoma): > 25 µM
GI50 (T-47D breast): > 25 µM
TGI (T-47D breast): > 25 µM
GI50 (SK-MEL-28 melanoma): > 25 µM
TGI (SK-MEL-28 melanoma): > 25 µM
GI50 (BT-549 breast): > 25 µM
TGI (BT-549 breast): > 25 µM
GI50 (K-562 leukemia): 17.1 µM
TGI (K-562 leukemia): > 25 µM
GI50 (MDA-MB-231 breast): > 25 µM
TGI (MDA-MB-231 breast): > 25 µM
GI50 (SF-268 CNS): > 25 µM
TGI (SF-268 CNS): > 25 µM
GI50 (KM12 colon): 22.4 µM
TGI (KM12 colon): > 25 µM
GI50 (NCI-H226 lung): > 25 µM
TGI (NCI-H226 lung): > 25 µM
GI50 (UACC-62 melanoma): > 25 µM
TGI (UACC-62 melanoma): > 25 µM
GI50 (A549 NSCLC): > 25 µM
TGI (A549 NSCLC): > 25 µM
GI50 (SF-295 CNS): > 22.7 µM
TGI (SF-295 CNS): > 25 µM
GI50 (MCF7 breast): > 20.7 µM
TGI (MCF7 breast): > 25 µM
GI50 (UACC-257 melanoma): > 25 µM
TGI (UACC-257 melanoma): > 25 µM
GI50 (SR leukemia): 16.1 µM
TGI (SR leukemia): > 25 µM
GI50 (A498 renal): > 15.6 µM
TGI (A498 renal): > 25 µM
GI50 (UO-31 renal): > 25 µM
TGI (UO-31 renal): > 25 µM
GI50 (HCT-15 colon): > 23.9 µM
TGI (HCT-15 colon): > 25 µM
GI50 (IGROV1 ovarian): > 25 µM
TGI (IGROV1 ovarian): > 25 µM
GI50 (SNB-75 CNS): > 25 µM
TGI (SNB-75 CNS): > 25 µM
GI50 (SNB-19 CNS): > 25 µM
TGI (SNB-19 CNS): > 25 µM
GI50 (SK-MEL-5 melanoma): > 25 µM
TGI (SK-MEL-5 melanoma): > 25 µM
GI50 (SF-539 CNS): > 25 µM
TGI (SF-539 CNS): > 25 µM
GI50 (MOLT-4 leukemia): 24.6 µM
TGI (MOLT-4 leukemia): > 25 µM

Nc1nc(N)c2cc(S(=O)(=O)c3ccc4ccccc4c3)ccc2n1
TGI (ACHN renal): > 100 µM
TGI (MALME-3M melanoma): > 100 µM
GI50 (M14 melanoma): 2.23 µM
TGI (M14 melanoma): > 100 µM
TGI (SN12C renal): > 100 µM
TGI (TK-10 renal): > 81.2 µM
GI50 (SW-620 colon): 0.611 µM
TGI (SW-620 colon): > 100 µM
TGI (OVCAR-8 ovarian): 49.6 µM
TGI (LOX IMVI melanoma): > 100 µM
TGI (NCI/ADR-RES ovarian): > 100 µM
GI50 (RXF 393 renal): 3.81 µM
TGI (RXF 393 renal): 48 µM
GI50 (COLO 205 colon): 6.37 µM
TGI (COLO 205 colon): > 100 µM
TGI (CAKI-1 renal): > 100 µM
TGI (MDA-MB-435): > 100 µM
TGI (OVCAR-5 ovarian): > 100 µM
TGI (HL-60(TB) leukemia): > 100 µM
GI50 (DU-145 prostate): 7.78 µM
TGI (DU-145 prostate): > 100 µM
TGI (786-0 renal): > 100 µM
TGI (HOP-62 NSCLC): 30.3 µM
GI50 (CCRF-CEM leukemia): > 100 µM
TGI (CCRF-CEM leukemia): > 100 µM
TGI (HCC-2998 colon): > 100 µM
TGI (U251 CNS): 23.6 µM
TGI (SK-OV-3 ovarian): > 81.8 µM
TGI (RPMI-8226 leukemia): > 100 µM
TGI (NCI-H460 lung): > 100 µM
GI50 (HT29 colon): 2.34 µM
TGI (HT29 colon): > 100 µM
TGI (HCT-116 colon): > 100 µM
TGI (PC-3 prostate): > 100 µM
TGI (NCI-H522 lung): > 93 µM
TGI (NCI-H23 lung): > 100 µM
TGI (OVCAR-3 ovarian): > 100 µM
TGI (HOP-92 NSCLC): 34.8 µM
TGI (HS 578T breast): > 73.8 µM
TGI (SK-MEL-2 melanoma): > 77.8 µM
TGI (T-47D breast): > 29.6 µM
TGI (SK-MEL-28 melanoma): > 100 µM
TGI (BT-549 breast): > 100 µM
TGI (K-562 leukemia): > 100 µM
TGI (MDA-MB-231 breast): > 31.6 µM
TGI (SF-268 CNS): > 58.9 µM
TGI (KM12 colon): > 100 µM
TGI (EKVX NSCLC): > 100 µM
GI50 (NCI-H226 lung): 10.8 µM
TGI (NCI-H226 lung): > 100 µM
TGI (UACC-62 melanoma): > 100 µM
TGI (A549 NSCLC): > 100 µM
TGI (SF-295 CNS): > 56.3 µM
GI50 (MCF7 breast): 5.17 µM
TGI (MCF7 breast): > 100 µM
TGI (UACC-257 melanoma): 2.67 µM
GI50 (SR leukemia): > 100 µM
TGI (SR leukemia): > 100 µM
TGI (HCT-15 colon): > 100 µM
TGI (IGROV1 ovarian): > 100 µM
TGI (SNB-75 CNS): 12.3 µM
TGI (SNB-19 CNS): 63.5 µM
TGI (SK-MEL-5 melanoma): > 65.7 µM
TGI (SF-539 CNS): > 74.7 µM
GI50 (MOLT-4 leukemia): > 100 µM
TGI (MOLT-4 leukemia): > 100 µM
